According to patent publication US20050074867A1, “Preservation of competent cells at ambient temperatures” (priority 2001, published 2005):

System: logarithmic E. coli cells
Assay: Preservation survival and stability of logarithmic E. coli cells loaded in vitro before foam drying
Type: cell-based
Method: (3) Loading of fresh electrocompetent E. coli cells before preservation: When applicable, one aliquot of the cell concentrate (3.2 ml of cells in PBS buffer, approx. 2×10^10 cfu/ml) was mixed with 0.8 ml of 50% methyl-glucoside (MAG; 10% final concentration) and incubated at 37° C. for 30 minutes (in vitro loading). A second aliquot (3.2 ml of the cell concentrate) was mixed with 0.8 ml of PBS buffer and incubated on ice for 30 minutes (control, unloaded cells). Similar to loading with MAG, the cells were loaded with 2-deoxyglucose (2-DOG) as described in Example 5 infra.
(4) Preservation of electrocompetent E. coli cells: The cells (resuspended in PBS buffer or on 20% sucrose) were mixed with an equal mass of preservation solution consisting of 45% 2:1 sucrose:raffinose or 45% 4:1 sucrose:MAG on ice. Altematively, the cell pellets were resuspended directly in 22.5% sucrose:raffinose or 22.5% 4:1 sucrose:MAG. The 0.5 g aliquots were distributed in 5 ml glass serum vials or 0.2 g aliquots were distributed in 1.2 ml glass serum vials. To determine the survival in preservation solution before drying, cell-containing mixtures were diluted in PBS buffer containing 20% sucrose and appropriate dilutions were spread plated in duplicate on L-agar plates.
The samples were dried by foam formation. The mixtures were foamed at 0° C. and kept at that temperature until foam formation occurred. After foam was well formed, shelf temperature was increased to 20° C. and drying continued overnight (at least 12 hours).
(5) Assaying the preserved E. coli cells: Dried samples were rehydrated at room temperature. 1 ml of rehydration solution (20% sucrose) was added to the 5 ml vials and 0.2 ml was added to the 1.2 ml vials. For the determination of preservation survival, rehydrated cells were diluted and spread plated in duplicate on L-agar plates. Plates were incubated at 37° C. overnight and colonies were counted the following day.
Bacterial culture was grown until OD550=0.5 was reached (mid-log growth stage). The cell concentrates were prepared as described previously. Control cells, which were not loaded, were incubated on ice for 30 minutes. Cell concentrates were incubated with different amounts (0.15-1%, 5%, 10% and 15%) of glucose and glucose nonmetabolizable analogs at 37° C. for 30 minutes (loading). These mixtures were preserved as described previously.
Accumulation of MAG in the cells prior to drying enhances preservation of logarithmic E. coli cells. Two cell concentrates (harvested at mid-log growth stage) were prepared as described previously. To induce uptake of MAG, 0.5% glucose was added to the growth medium (“induced culture”). Both concentrates were incubated with 10% MAG at 37° C. for 30 minutes (loading). When loading was completed, one concentrate was diluted 100-fold in PBS buffer and incubated at 37° C. for an additional 30 minutes to induce expulsion of the pre-accumulated MAG. Both concentrates were preserved as described previously.
Mid-logarithmic culture was prepared as described previously. 0.5% glucose was added to the growth medium (“induced cells”). The culture was concentrated 10-fold and the concentrates were incubated for 30 minutes with 10% MAG at different temperatures (0, 20, 40, and 60° C.). The mixtures were preserved as described previously.
Effect of incubation time on accumulation of MAG in logarithmic E. coli cells. Cell concentrates were prepared as described previously (0.5% glucose was added to the growth medium) and incubated with 10% MAG at 37° C. for 0, 2.5, 5, 15, 30, and 60 minutes. The mixtures were preserved as described previously.
Effect of growth stage on accumulation of MAG in E. coli cells. E. coli cultures were grown in L-broth with 0.5% glucose as described previously and harvested at OD550=0.1 (early-log), 0.5 (mid-log), 1.0 (late-log) and 2.0 (stationary cells). The cells in each culture were concentrated and split in two aliquots. […]

O=CC[C@@H](O)[C@H](O)[C@H](O)CO [Sample 2-DOG, 2-deoxyglucose]
survived drying (mid-logarithmic cells loaded with 0.1-1% at 37° C. for 30 minutes): 9-12%
survived drying (mid-logarithmic cells loaded with 5% at 37° C. for 30 minutes): 20%
survived drying (mid-logarithmic cells loaded with 10% at 37° C. for 30 minutes): 16%
survived drying (mid-logarithmic cells loaded with 15% at 37° C. for 30 minutes): 20%
